This note sets out measurements from ChEMBL document CHEMBL1201862, “PubChem BioAssay data set” (2004).

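In this assay, cells in 96-well plates receive the compound at five concentrations for 48 hours. Endpoints are linearly interpolated between the surrounding concentrations. At the GI50, growth is halved.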 Active and inactive are the calls of the source. Cut-off read from the data, not from the text of the source: active = GI50 up to about 1.1 µM and inactive = higher.

What all share (experiment): DTP human tumour cell line panel, 48 h
Assay [1] deals with SK-MEL-5.
For assay [2], the system named is HCT-15.
Assay [3] relates to SW-620.
In assay [4] the test system is SF-268.
The subject of assay [5] is HCC 2998.
In assay [6] the test system is Malme-3M.
The subject of assay [7] is NCI-H23.
The subject of assay [8] is LOX IMVI.
For assay [9], the system named is UACC-62.
Assay [10] deals with MDA-MB-435.
Assay [11] has as its system HCT-116.
The subject of assay [12] is 786-0.
Assay [13] relates to PC-3.
The subject of assay [14] is A549.
The test system of assay [15] is OVCAR-8.
Assay [16] deals with BT-549.
The subject of assay [17] is HOP-62.
For assay [18], the system named is ACHN.
In assay [19] the test system is OVCAR-3.
The test system of assay [20] is MDA-N.

One may read the GI50 as the concentration that inhibits growth by half. As to `Cc1ccc(C)n1-c1ccccc1C1SCCCS1`, the GI50 in [1] was > 100 µM (inactive); in [2], above 100 µM; in assay [3] it was > 100 µM (inactive); in assay [4], > 100 µM (inactive); in assay [5] it was > 100 µM (inactive); in assay [6], > 100 µM (inactive). Further, the GI50 in assay [7], in assay [8], in [9], in assay [10], in assay [11] and in assay [12] was > 100 µM (inactive) throughout. For the same molecule, the GI50 is > 100 µM (inactive) in assay [13]; 98.9 µM (inactive) in assay [14]; > 100 µM (inactive) in assay [15]; > 100 µM (inactive) in [16]; 50.8 µM (inactive) in [17]; > 100 µM (inactive) in [18]. The GI50 in assay [19] and in [20] was > 100 µM (inactive) each time.

As to `CN(C)CCOc1ccc(I)cc1Cc1ccccc1`, the GI50 in assay [1] is 3.61 µM (inactive); in [2], 12.2 µM; in assay [3], 14.2 µM (inactive); in [4], 13.2 µM (inactive); in assay [5] it was 3.29 µM (inactive); in assay [6] it was 15.9 µM (inactive). For the same molecule, the GI50 in assay [7] is 4.05 µM (inactive); in assay [8], 5.2 µM (inactive); in [9], 3.28 µM (inactive); in assay [10], 4.27 µM (inactive); in assay [11], 10.6 µM (inactive); in assay [12], 10.7 µM (inactive). The GI50 was 8.28 µM (inactive) in [13]; 15.5 µM (inactive) in assay [14]; 16 µM (inactive) in [15]; 14 µM (inactive) in [16]; 13.9 µM (inactive) in assay [17]; 12.2 µM (inactive) in assay [18]. Moreover, the GI50 in assay [19] was 13.2 µM (inactive); in assay [20] it was 5.31 µM (inactive).

As for `CC(C)(C)n1c(=O)n(C(=O)C(Cl)(Cl)Cl)n(C(=O)C(Cl)(Cl)Cl)c1=O`, the GI50 in [1] is > 100 µM (inactive); in [2], above 100 µM; in assay [3], > 100 µM (inactive); in assay [4] it was > 100 µM (inactive); in assay [5], > 100 µM (inactive); in assay [6], > 100 µM (inactive). The GI50 in assay [7], in assay [8], in [9], in assay [10], in assay [11] and in assay [12] was > 100 µM (inactive) throughout. The GI50 in assay [13], in [14], in [15], in assay [16], in assay [17] and in assay [18] was > 100 µM (inactive) each time. Also, the GI50 in assay [19] and in assay [20] was > 100 µM (inactive) each time.

`CC[C@H]1C=CCC[C@@]2(C[C@@H]3CC[C@@H]4[C@H](C(=O)OCCCCCCCCCCCCCCCC(=O)N(CCCNC(C)=O)C[C@H](CCNC(C)=O)OC(C)=O)[C@]5(CCC[C@@H](C)O5)NC(=[N+]34)N2)O1`: the GI50 in [1] is 0.124 µM (active); in [2], 0.904 µM; in assay [3], 0.264 µM (active); in assay [4] it was 0.187 µM (active); in assay [5], 0.023 µM (active); in assay [6] it was 0.21 µM (active). The GI50 in [7] was 0.583 µM (active); in assay [8], 0.0277 µM (active); in [9], 0.0752 µM (active); in [10] it was 0.0432 µM (active); in assay [11], 0.0405 µM (active); in assay [12] it was 0.109 µM (active). Moreover, the GI50 in assay [13] was 0.0349 µM (active); in assay [14], 0.215 µM (active); in assay [15], 0.614 µM (active); in assay [16], 0.453 µM (active); in assay [17], 0.494 µM (active); in [18] it was 0.382 µM (active). The GI50 is 0.158 µM (active) in [19] and 0.0466 µM (active) in [20].

As to `COc1ccc(C2=Nn3c(nc4sc(C)c(C)c4c3=O)SC2)cc1`, the GI50 is > 100 µM (inactive) in [1]; above 100 µM in assay [2]; > 100 µM (inactive) in assay [3]; > 100 µM (inactive) in [4]; > 100 µM (inactive) in [5]; > 100 µM (inactive) in assay [6]. For the same molecule, the GI50 in [7], in assay [8], in assay [9], in assay [10], in assay [11] and in assay [12] was > 100 µM (inactive) throughout. Moreover, the GI50 in [13], in assay [14], in [15], in assay [16], in assay [17] and in [18] was > 100 µM (inactive) each time. The GI50 in assay [19] and in assay [20] was > 100 µM (inactive) each time.

For the molecule `COc1cc(C2c3cc4c(cc3[C@@H](Nc3ccc(C#N)cc3)C3COC(=O)[C@H]23)OCO4)cc(OC)c1O` (stereo not given in full), the GI50 was 0.661 µM (active) in assay [1]; 2.31 µM in assay [2]; 0.889 µM (active) in [3]; 2.43 µM (inactive) in assay [4]; 0.0693 µM (active) in [5]; 1.29 µM (inactive) in assay [6]. In addition, the GI50 is 0.622 µM (active) in [7]; 1.08 µM (active) in assay [8]; 0.962 µM (active) in assay [9]; 8.77 µM (inactive) in assay [10]; 2.01 µM (inactive) in assay [11]; 0.724 µM (active) in [12]. The GI50 in assay [13] was 9.82 µM (inactive); in assay [14], 0.166 µM (active); in assay [15], 0.975 µM (active); in assay [16] it was 7.74 µM (inactive); in assay [17] it was 0.592 µM (active); in assay [18], 0.184 µM (active). In addition, the GI50 in [19] is 14.4 µM (inactive); in [20] it was 6.21 µM (inactive).

As to `CCCCC(C#N)(OP1(=O)OC(c2ccccc2)C(C)N1C)c1ccccc1` (stereo not given), the GI50 in [1] was 17.3 µM (inactive); in assay [2], 20.3 µM; in assay [3], 16.4 µM (inactive); in [4] it was 17.4 µM (inactive); in assay [5], 15.1 µM (inactive); in assay [6] it was 15.6 µM (inactive). For the same molecule, the GI50 in assay [7] is 19.7 µM (inactive); in assay [8], 18.9 µM (inactive); in assay [9] it was 14.3 µM (inactive); in [10], 17.7 µM (inactive); in assay [11], 16.2 µM (inactive); in assay [12], 17.3 µM (inactive). The GI50 in assay [13] is 17 µM (inactive); in assay [14], 20.1 µM (inactive); in assay [15], 17.6 µM (inactive); in [16] it was 20.3 µM (inactive); in assay [17] it was 21.6 µM (inactive); in assay [18], 19 µM (inactive). Besides, the GI50 in assay [19] is 16.6 µM (inactive); in assay [20] it was 16.4 µM (inactive).

Turning to `Cc1c(-c2ccccc2)[nH]c2cn[nH]c(=O)c12`, the GI50 is 67.9 µM (inactive) in [1]; 55.3 µM in assay [2]; > 100 µM (inactive) in assay [3]; > 100 µM (inactive) in assay [4]; > 100 µM (inactive) in [5]; > 100 µM (inactive) in assay [6]. Further, the GI50 was > 100 µM (inactive) in assay [7]; 70.6 µM (inactive) in assay [8]; 59.2 µM (inactive) in assay [9]; > 100 µM (inactive) in [10]; > 100 µM (inactive) in assay [11]; > 100 µM (inactive) in assay [12]. The GI50 in assay [13] was 67.9 µM (inactive); in [14] it was > 100 µM (inactive); in assay [15], > 100 µM (inactive); in assay [16], 75 µM (inactive); in assay [17] it was 50.9 µM (inactive); in assay [18], > 100 µM (inactive). Also, the GI50 in [19] is 39.6 µM (inactive); in [20], > 100 µM (inactive).

With `CC[C@@]1(O)C(=O)OCc2c1cc1n(c2=O)Cc2c-1nc1ccccc1c2/C=N\NC(=O)C(N)CS` (stereo not given in full), the GI50 in [1] was 1.13 µM (inactive); in assay [2], 3.83 µM; in assay [3] it was 1.37 µM (inactive); in assay [4], 0.186 µM (active); in assay [5] it was 9.46 µM (inactive); in assay [6], 9.59 µM (inactive). Besides, the GI50 in assay [7] is 0.733 µM (active); in assay [8], 0.454 µM (active); in [9], 0.0614 µM (active); in assay [10], 5.36 µM (inactive); in assay [11], 1.7 µM (inactive); in assay [12], 0.51 µM (active). The GI50 is 3.52 µM (inactive) in assay [13]; 2 µM (inactive) in [14]; 1.09 µM (active) in [15]; 10.8 µM (inactive) in [16]; 0.295 µM (active) in assay [17]; 0.262 µM (active) in [18]. Besides, the GI50 is 13.2 µM (inactive) in assay [19] and 9.4 µM (inactive) in assay [20].

Regarding `CN(C)CCNC(=O)c1cccc2c(NC(CCCNC(=N)N)C(=O)O)c3ccccc3[n+](C)c12` (stereo not given), the GI50 in assay [1] was 40.1 µM (inactive); in assay [2] it was above 100 µM; in assay [3] it was 53.5 µM (inactive); in [4], 29 µM (inactive); in [5], 69.5 µM (inactive); in assay [6] it was 86.7 µM (inactive). The GI50 was > 100 µM (inactive) in [7]; 66.1 µM (inactive) in assay [8]; > 100 µM (inactive) in [9]; > 100 µM (inactive) in [10]; 45.6 µM (inactive) in assay [11]; 71 µM (inactive) in assay [12]. Besides, the GI50 was 79.8 µM (inactive) in assay [13]; 78.5 µM (inactive) in assay [14]; 92 µM (inactive) in assay [15]; > 100 µM (inactive) in [16]; 68.1 µM (inactive) in [17]; 68.7 µM (inactive) in assay [18]. In addition, the GI50 was > 100 µM (inactive) in assay [19] and 61.5 µM (inactive) in assay [20].
